Assay results published in patent publication US5625083A, “Dinitroglycerol esters of unsaturated fatty acids and prostaglandins” (priority 1995, dated 1997).
Where two headings read alike, the source gives them in different places. Values belong to the compound of their own block, whether it stands above or below them.

Experiments:
human platelets [1] = assay: ADP-induced aggregation of human platelets; type: cell-based; settings: for inhibition of ADP induced human platelet aggregation: moderate antiaggregating activity
Procedure: 1,3Dinitroglycerol ester of prostaglandin D2 inhibited aggregation of human platelets induced by ADP ([…]) in dose 0.1 mg/ml of plasma on 50%.

RAT UTERUS = assay: Rat uterus contraction; type: cell-based; settings: for EC50: Rattus norvegicus
RAT STOMACH = assay: Rat stomach contraction; type: cell-based; settings: for EC50: Rattus norvegicus
GUINEA PIG TRACHEA = assay: Isolated guinea pig trachea relaxation / contraction; type: cell-based; settings: for EC50: Cavia porcellus
isolated rat aorta [2] = assay: Isolated rat aorta relaxation / contraction; type: cell-based; settings: for EC50: Rattus norvegicus; for effect on isolated rat aorta: result in words
RAT COLON = assay: Rat colon contraction; type: cell-based; settings: for EC50: Rattus norvegicus
heart rate = assay: Heart rate and tachyphylaxis in experimental animals; type: in vivo
mice [3] = assay: Mice survival under toxic concentration of CO; type: in vivo
Source text: (§1) NITROPROSTON protected laboratory animals from a variety of noxious factors. It increased the survival of mice in an atmosphere with elevated CO or NO2 concentration: survival in the experimental group was 1.5-4 times higher than in the control group.
(§2) INFLUENCE OF NITROPROSTON ON MICE SURVIVAL
(§3) TOXIC CONCENTRATION OF CO OR NO2

mice [4] = assay: Mice survival under toxic concentration of NO2; type: in vivo; settings: NO2 (700 mg/m^3); 1 mg/kg; control 17
Source text: as §1, §2, §3

isolated rat aorta [5] = assay: Stability of ethanolic solution of NITROPROSTON (relaxation of isolated rat aorta contracted with adrenaline after storage); type: cell-based; settings: read-out: Relaxation of isolated rat aorta contracted with adrenaline, ED5O
Source text: Stability of ethanolic solution of NITROPROSTON.
Relaxation of isolated rat aorta
months contracted with adrenaline, ED5O, M*10^-6

[6] = test system: rats with experimental hypercholesterolaemia; assay: Lipid spectrum of serum of rats with experimental hypercholesterolaemia; type: in vivo, rat; settings: 15 μg/kg intraperitoneally, 6 times per week, one month
Procedure: Lipids and lipid fractions in sera of rats with experimental hypercholesterolaemea were determined after one month of animal development with indicated drugs in a dose 15 μg/kg body weight intraperitoneally. 6 times per week. Rats not developed by drugs served as a control group.

rat and rabbit tissues = assay: Hypertensive activity in experiments with rat and rabbit tissues; settings: relative to parent PGE2
mice [7] = assay: Mice survival under conditions of hypobaric hypoxia; type: in vivo; settings: Hypobary (9000 m); 1 mg/kg; control 18.5
Source text: as §2
UNDER CONDITIONS OF HYPOBARIC HYPOXIA AND

mice [8] = assay: Toxicity in mice; type: in vivo
[9] = test system: rats with experimental hypercholesterolaemia; assay: Peroxidation of serum or tissue lipids (MDA) of rats with experimental hypercholesterolaemia; type: in vivo, rat; settings: 15 μg/kg intraperitoneally, 6 times per week, one month
Procedure: MDA contents as a parameter of lipid peroxidation were estimated after one month of animal development with indicated drugs in a dose 15 μg/kg body weight intraperitoneally, 6 times per week. Rats not developed by drugs served as a control.

[10] = test system: volunteers and patients with bronchus obstruction; assay: Bronchodilation in volunteers and patients with bronchus obstruction; type: in vivo, human; settings: given as a spray (5-7×10^-3 mg per dose)
Source text: This raises the possibility of using NITROPROSTON to treat bronchospasms.

human platelets [11] = settings: parent compound, no own test described; cited from earlier work
[12] = contraction, read-out: stimulating rat uterine contractions, EC50
[13] = read-out: RAT UTERUS, contraction, EC50
[14] = compared with prostaglandin F2α
[15] = read-out: GUINEA PIG TRACHEA relaxation, EC50
[16] = read-out: ISOLATED RAT AORTA relaxation, EC50
[17] = relaxation, read-out: vasodilating effect on the isolated rat aorta, EC50

SMILES: CC/C=C\C/C=C\C/C=C\CCCCCCCC(=O)OC(CO[N+](=O)[O-])CO[N+](=O)[O-] [1,3-dinitroglycerol ester of 9,12,15-octadecatrienoic acid]
inhibition of ADP induced human platelet aggregation (human platelets [1]): 30-50%

SMILES: CCCCC/C=C\C/C=C\C/C=C\C/C=C\CCCC(=O)OC(CO[N+](=O)[O-])CO[N+](=O)[O-] [1,3-dinitroglycerol ester of arachidonic acid]
inhibition of aggregation of human platelets induced by ADP (human platelets [1]; ADP (1×10^-5), dose 0.1 mg/ml of plasma): almost completely inhibited

SMILES: CC/C=C\C/C=C\C/C=C\C/C=C\C/C=C\C/C=C\CCC(=O)OC(CO[N+](=O)[O-])CO[N+](=O)[O-] [1,3-dinitroglycerol ester of docosahexaenoic acid]
inhibition of ADP induced human platelet aggregation (human platelets [1]): 30-50%

SMILES: CCCCC[C@H](O)/C=C/[C@H]1C(=O)C[C@H](O)[C@@H]1C/C=C\CCCC(=O)OC(CO[N+](=O)[O-])CO[N+](=O)[O-] [1,3-dinitroglycerol ester of prostaglandin D2]
inhibition at 100 µg/mL (human platelets [1]; Homo sapiens, Platelet, ADP (1×10M), dose 0.1 mg/ml of plasma): 50%

SMILES: CCCCC[C@H](O)/C=C/[C@@H]1[C@@H](C/C=C\CCCC(=O)OC(CO[N+](=O)[O-])CO[N+](=O)[O-])[C@@H](O)C[C@H]1O [NITROPROST-F, 1,3-dinitroglycerol ester of prostaglandin F2α]
EC50 (RAT UTERUS; [12]): 9 nM | EC50 (RAT UTERUS; [13]): 9 ± 1.7 nM | effectiveness in stimulating rat uterine contractions, times more than prostaglandin F2α (RAT UTERUS; relative to prostaglandin F2α): more than 10 times | EC50 (RAT STOMACH): 130 ± 10 nM | activity in rat stomach contraction (RAT STOMACH; [14]): lower activity | EC50 (GUINEA PIG TRACHEA; [15]): 10000 ± 1500 nM | EC50 (isolated rat aorta [2]; [16]): 540 ± 190 nM | EC50 (RAT COLON): 175 ± 70 nM | effectiveness on rat colon (RAT COLON; [14]): as effective as prostaglandin F2α

SMILES: CCCCC[C@H](O)/C=C/[C@H]1[C@H](O)CC(=O)[C@@H]1C/C=C\CCCC(=O)OC(CO[N+](=O)[O-])CO[N+](=O)[O-] [NITROPROSTON, 1,3-dinitroglycerol ester of prostaglandin E2]
effect on heart rate (heart rate): did not affect the heart rate | tachyphylaxis (heart rate): no tachyphylaxis was observed | Survival, % (mice [3]; CO (11 g/m^3), 1 mg/kg, control 41): 66% | survival in the experimental group, times higher than in the control group (mice [3]; mice, atmosphere with elevated CO or NO2 concentration): 1.5-4 times | EC50 (RAT UTERUS; [13]): 400 ± 100 nM | EC50 (RAT STOMACH): 60 ± 10 nM | Survival, % (mice [4]): 65% | EC50 (isolated rat aorta [5]; time of storage 1 month): 1540 ± 210 nM | EC50 (isolated rat aorta [5]; time of storage 12 months): 1770 ± 148 nM | HDL cholesterol (HDLC), changes of the contents (%, relative to control) [6]: 123% | HDLC/TSC, changes (%, relative to control) [6]: 128% | LDL cholesterol, changes of the contents (%, relative to control) [6]: 57% | Total lipids, changes of the contents (%, relative to control) [6]: 67% | Total serum cholesterol (TSC), changes of the contents (%, relative to control) [6]: 95% | Triglicerides, changes of the contents (%, relative to control) [6]: 95% | hypertensive activity, times higher than that of the parent PGE2 (rat and rabbit tissues): 5 times | Survival, % (mice [7]): 82% | LD50 (mice [8]): > 100 mg | EC50 (GUINEA PIG TRACHEA; [15]): 7 nM | EC50 (GUINEA PIG TRACHEA; relaxation, read-out: bronchodilating activity, EC50 in isolated guinea pig trachea): 7.18 nM | MDA level (%, relative to control), Aorta [9]: 44% | MDA level (%, relative to control), Liver [9]: 77% | MDA level (%, relative to control), Serum [9]: 85% | EC50 (isolated rat aorta [2]; [16]): 680 ± 120 nM | EC50 (isolated rat aorta [2]; [17]): 680 nM | bronchodilation in volunteers and patients with bronchus obstruction [10]: potent, effective bronchodilator

SMILES: CCCCC[C@H](O)/C=C/[C@H]1[C@H](O)CC(=NO)[C@@H]1CCCCCCC(=O)OC(CO[N+](=O)[O-])CO[N+](=O)[O-] [NITROPROX, 1,3-dinitroglycerol ester of 9-oxyiminoprostaglandin E1]
HDL cholesterol (HDLC), changes of the contents (%, relative to control) [6]: 114% | HDLC/TSC, changes (%, relative to control) [6]: 138% | LDL cholesterol, changes of the contents (%, relative to control) [6]: 76% | Total lipids, changes of the contents (%, relative to control) [6]: 92% | Total serum cholesterol (TSC), changes of the contents (%, relative to control) [6]: 96% | Triglicerides, changes of the contents (%, relative to control) [6]: 79% | MDA level (%, relative to control), Aorta [9]: 32% | MDA level (%, relative to control), Liver [9]: 104% | MDA level (%, relative to control), Serum [9]: 101% | EC50 (isolated rat aorta [2]; [17]): 640 nM | IC50 (human platelets [1]; Homo sapiens, Platelet, read-out: antiaggregating properties, IC50, ADP-induced aggregation of human platelets): 1100 nM

EC50 (RAT UTERUS; [13]): 80 ± 16 nM | EC50 (RAT STOMACH): 40 ± 15 nM | EC50 (GUINEA PIG TRACHEA; [15]): 140 ± 80 nM | EC50 (isolated rat aorta [2]; read-out: ISOLATED RAT AORTA contraction, EC50): 84000 ± 1000 nM
SMILES: CCCCC[C@H](O)/C=C/[C@H]1[C@H](O)CC(=O)[C@@H]1C/C=C\CCCC(=O)O [PGE2, prostaglandin E2, reference compound]
effect on isolated rat aorta (isolated rat aorta [2]): induced muscle contraction

EC50 (RAT UTERUS; [12]): 110 nM | EC50 (RAT UTERUS; [13]): 110 ± 40 nM | EC50 (RAT STOMACH): 50 ± 15 nM | EC50 (RAT COLON): 130 ± 71 nM
SMILES: CCCCC[C@H](O)/C=C/[C@@H]1[C@@H](C/C=C\CCCC(=O)O)[C@@H](O)C[C@H]1O [PGF2α, prostaglandin F2α, reference compound]
effect on isolated guinea pig trachea (GUINEA PIG TRACHEA; result in words): contraction | effect on isolated rat aorta (isolated rat aorta [2]): contraction

SMILES: CCCCC[C@H](O)/C=C/[C@H]1[C@H](O)CC(=O)[C@@H]1CCCCCCC(=O)OC(CO[N+](=O)[O-])CO[N+](=O)[O-] [PROSTANIT, 1,3-dinitroglycerol ester of prostaglandin E1]
HDL cholesterol (HDLC), changes of the contents (%, relative to control) [6]: 76% | HDLC/TSC, changes (%, relative to control) [6]: 122% | LDL cholesterol, changes of the contents (%, relative to control) [6]: 70% | Total lipids, changes of the contents (%, relative to control) [6]: 72% | Total serum cholesterol (TSC), changes of the contents (%, relative to control) [6]: 78% | Triglicerides, changes of the contents (%, relative to control) [6]: 72% | EC50 (isolated rat aorta [2]; relaxation, read-out: relaxing effect on the isolated rat aorta, EC50): 2100 nM | IC50 (human platelets [1]; Homo sapiens, Platelet, read-out: inhibition of ADP-induced aggregation of human platelets, IC50): 190 nM

SMILES: CCCCC/C=C\C/C=C\C/C=C\C/C=C\CCCC(=O)O [arachidonic acid]
effect on platelet aggregation (parent acid) (human platelets [11]): powerful inducer of platelet aggregation

SMILES: CCC=CCC=CCC=CCC=CC=CC(O)CCCC(=O)OCC(CO[N+](=O)[O-])O[N+](=O)[O-] (centres unmarked) [dinitroglycerol ester of 5-hydroxyeicosapentaenoic acid]
inhibition of ADP induced human platelet aggregation (human platelets [1]): 30-50%
